Tests used:
[1] = cited from earlier work
[2] = molecular target: T1, OATP2B1 (Homo sapiens, UniProt O94956); assay: OATP2B1-mediated transport of substrate; type: in vitro ADME; conditions: Estimated; optimized to recover ~40% Fa
T1 sequence (O94956 1-709): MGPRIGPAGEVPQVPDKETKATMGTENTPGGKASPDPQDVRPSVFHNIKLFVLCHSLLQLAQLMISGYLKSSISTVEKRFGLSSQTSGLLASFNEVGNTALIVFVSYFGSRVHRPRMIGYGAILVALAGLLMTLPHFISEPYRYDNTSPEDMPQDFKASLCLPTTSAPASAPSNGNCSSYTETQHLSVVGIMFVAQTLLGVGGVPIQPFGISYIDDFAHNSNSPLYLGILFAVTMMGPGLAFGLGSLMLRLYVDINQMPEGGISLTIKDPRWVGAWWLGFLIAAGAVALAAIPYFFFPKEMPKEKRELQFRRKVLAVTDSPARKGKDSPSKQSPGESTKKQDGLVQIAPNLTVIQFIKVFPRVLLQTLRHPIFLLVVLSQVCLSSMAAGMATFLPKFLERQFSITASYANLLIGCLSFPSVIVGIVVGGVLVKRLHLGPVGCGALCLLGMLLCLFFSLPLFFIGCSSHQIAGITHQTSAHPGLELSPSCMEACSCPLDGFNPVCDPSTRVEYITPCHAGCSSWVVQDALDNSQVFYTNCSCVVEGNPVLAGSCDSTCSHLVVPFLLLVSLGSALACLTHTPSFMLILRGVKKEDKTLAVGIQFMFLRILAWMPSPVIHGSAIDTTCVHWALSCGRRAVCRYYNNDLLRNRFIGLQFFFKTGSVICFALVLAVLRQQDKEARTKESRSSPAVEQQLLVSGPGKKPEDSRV

[3] = molecular target: T2, BCRP (Homo sapiens, UniProt Q9UNQ0); conditions: read-out: BCRP Km; membrane vesicle assay; cited from earlier work
T2 sequence (Q9UNQ0 1-655): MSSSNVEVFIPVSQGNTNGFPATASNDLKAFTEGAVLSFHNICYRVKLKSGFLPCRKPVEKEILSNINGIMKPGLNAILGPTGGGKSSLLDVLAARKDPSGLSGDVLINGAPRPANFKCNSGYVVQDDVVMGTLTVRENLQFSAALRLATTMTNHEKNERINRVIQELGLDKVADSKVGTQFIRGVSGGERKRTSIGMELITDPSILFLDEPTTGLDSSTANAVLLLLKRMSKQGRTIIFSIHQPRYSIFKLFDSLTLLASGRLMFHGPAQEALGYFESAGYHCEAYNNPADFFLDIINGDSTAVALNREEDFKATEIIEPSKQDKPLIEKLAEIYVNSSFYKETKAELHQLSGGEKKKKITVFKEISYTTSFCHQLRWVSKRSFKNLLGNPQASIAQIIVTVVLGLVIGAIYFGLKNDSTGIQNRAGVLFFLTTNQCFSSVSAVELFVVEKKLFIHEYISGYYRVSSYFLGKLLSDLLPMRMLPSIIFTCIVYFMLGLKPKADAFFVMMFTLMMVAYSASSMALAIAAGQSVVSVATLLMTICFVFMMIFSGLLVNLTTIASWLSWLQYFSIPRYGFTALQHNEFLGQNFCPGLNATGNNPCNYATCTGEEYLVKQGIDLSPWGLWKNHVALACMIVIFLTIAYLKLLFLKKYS

[4] = molecular target: T2, BCRP; assay: BCRP-mediated transport of substrate; type: in vitro ADME; conditions: Estimated; optimized to recover ~40% Fa
[5] = Physicochemical PBPK model inputs
[6] = Passive transport clearance; type: in vitro ADME, human; conditions: Measured using SCHH
[7] = molecular target: T3, OATP1B3 (Homo sapiens, UniProt Q9NPD5); assay: OATP1B3-mediated transport of substrate; type: in vitro ADME; conditions: OATP1B3-transfected HEK293 cells
T3 sequence (Q9NPD5 1-702): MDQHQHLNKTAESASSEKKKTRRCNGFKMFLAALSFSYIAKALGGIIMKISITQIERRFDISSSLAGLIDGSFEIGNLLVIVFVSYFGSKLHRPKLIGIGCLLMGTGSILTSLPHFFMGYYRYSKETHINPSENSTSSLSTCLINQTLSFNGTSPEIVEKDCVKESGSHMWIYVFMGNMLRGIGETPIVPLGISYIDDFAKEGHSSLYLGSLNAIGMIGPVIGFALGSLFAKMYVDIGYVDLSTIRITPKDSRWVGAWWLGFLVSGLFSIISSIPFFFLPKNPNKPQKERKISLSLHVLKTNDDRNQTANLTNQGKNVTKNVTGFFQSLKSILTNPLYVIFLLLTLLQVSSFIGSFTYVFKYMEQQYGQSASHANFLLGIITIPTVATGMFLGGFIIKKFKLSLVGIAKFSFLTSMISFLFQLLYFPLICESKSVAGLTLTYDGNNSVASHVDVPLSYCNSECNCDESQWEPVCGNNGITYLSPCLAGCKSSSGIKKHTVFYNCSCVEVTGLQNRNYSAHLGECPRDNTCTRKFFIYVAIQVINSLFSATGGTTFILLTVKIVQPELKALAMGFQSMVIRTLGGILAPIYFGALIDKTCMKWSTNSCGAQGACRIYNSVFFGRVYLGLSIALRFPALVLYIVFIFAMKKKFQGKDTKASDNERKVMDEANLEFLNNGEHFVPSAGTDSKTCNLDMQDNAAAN

[8] = Caco-2 permeability; type: in vitro ADME; conditions: human
[9] = system: OATP1B1, OATP1B3, and OATP2B1; assay: SLC-phenotyping of hepatic uptake; type: in vitro ADME, human; conditions: SLC-phenotyping methodology

## CC(C)c1nc(N(C)S(C)(=O)=O)nc(-c2ccc(F)cc2)c1/C=C/[C@@H](O)C[C@@H](O)CC(=O)O [Rosuvastatin, rosuvastatin]
[1]
  contribution of OAT3-mediated active secretion to renal clearance: greater than 90%
  glomerular filtration rate: ~ 0.22 ml/min/kg
  renal clearance: ~ 2.6 ml/min/kg
[1]; human, in vivo, po
  oral bioavailability: ~ 20%
[2]
  Intestinal OATP2B1 CLint,T: 0.002 µL/min
[3]
  Km: 10.8 µM
[4]
  Intestinal BCRP Jmax: 380 pmol/min
[5]
  pKa: 4.33
[6]
  CLPD basal (hepatic and renal): 1.1 µl/min/10^6
[7]
  Km: 28.3 µM
[8]
  Papp: 1.2 ×10⁻⁶ cm/s
[9]
  share of active hepatic uptake driven by OATP1B1, OATP1B3, and OATP2B1: ~ 95%
